Data: patent publication EP0825187A1, “Condensed pyridazinyl guanidines, their production and use” (TAKEDA CHEMICAL INDUSTRIES, LTD., priority 1996, dated 1998)
Where a name gives a salt, the structure may show the parent alone.

Target: T1, Na-H exchange (Rattus norvegicus, UniProt P26431)
T1 construct: The blood was centrifuged at 3000 r.p.m. for […] to obtain platelet rich plasma (PRP); from tissue; host or cells: platelets in platelet rich plasma from the blood of male Wistar rats
Experiment: Inhibition of platelet swelling (light transmittance of platelet rich plasma after sodium propionate), indicator of Na-H exchange inhibition
Format: cell-based, Wistar rats
Conditions: rat PRP, value one minute after sodium propionate solution (pH 6.7, 37 °C), difference between 1% DMSO and HOE-642 (10^-5 M) taken as 100
Protocol: Male Wistar rats (350-450 g) were anesthetized with sodium pentobarbital (50 mg/kg, i.p.). Using a disposable syringe pre-filled with 1.5 ml of a 3.8% citric acid solution, 8.5 ml of blood was collected from the abdominal aorta. The blood was centrifuged at 3000 r.p.m. for […] to obtain platelet rich plasma (PRP). The number of platelets in the PRP was counted by an automatic hemocytometer (Sysmex 2500, TOA Medical Electronics). The PRP was diluted with physiological saline to make the concentration of 40 x 10^4 platelets per microliter. A platelet aggregometer (Hematoracer, Niko Bioscience) was used for mesurement of the platelet swelling. 200 Microliters of the PRP was poured into a cuvette and 600 µl of a sodium propionate solution (Na propionate 135, glucose 10: HEPES 20, CaCl2 1, MgCl2 1, Units mM, pH 6.7) was added while stirring at 37 °C. The change in the light transmittance of PRP which was an indicator of the platelet swelling was recorded on a plotter. The test compound was added 3 minutes before addition of the sodium propionate solution. Test compounds were dissolved in dimethyl sulfoxide (DMSO). The final concentration of DMSO was adjusted to 1%. The values obtained one minute after addition of the sodium propionate solution were subjected to analysis. The rate of the inhibition of the test compound on the increase of the light transmittance was calculated designating the difference obtained between the treatments with 1% DMSO and HOE-642 (10^-5 M) as 100. […]

T1 sequence (P26431 whole entry): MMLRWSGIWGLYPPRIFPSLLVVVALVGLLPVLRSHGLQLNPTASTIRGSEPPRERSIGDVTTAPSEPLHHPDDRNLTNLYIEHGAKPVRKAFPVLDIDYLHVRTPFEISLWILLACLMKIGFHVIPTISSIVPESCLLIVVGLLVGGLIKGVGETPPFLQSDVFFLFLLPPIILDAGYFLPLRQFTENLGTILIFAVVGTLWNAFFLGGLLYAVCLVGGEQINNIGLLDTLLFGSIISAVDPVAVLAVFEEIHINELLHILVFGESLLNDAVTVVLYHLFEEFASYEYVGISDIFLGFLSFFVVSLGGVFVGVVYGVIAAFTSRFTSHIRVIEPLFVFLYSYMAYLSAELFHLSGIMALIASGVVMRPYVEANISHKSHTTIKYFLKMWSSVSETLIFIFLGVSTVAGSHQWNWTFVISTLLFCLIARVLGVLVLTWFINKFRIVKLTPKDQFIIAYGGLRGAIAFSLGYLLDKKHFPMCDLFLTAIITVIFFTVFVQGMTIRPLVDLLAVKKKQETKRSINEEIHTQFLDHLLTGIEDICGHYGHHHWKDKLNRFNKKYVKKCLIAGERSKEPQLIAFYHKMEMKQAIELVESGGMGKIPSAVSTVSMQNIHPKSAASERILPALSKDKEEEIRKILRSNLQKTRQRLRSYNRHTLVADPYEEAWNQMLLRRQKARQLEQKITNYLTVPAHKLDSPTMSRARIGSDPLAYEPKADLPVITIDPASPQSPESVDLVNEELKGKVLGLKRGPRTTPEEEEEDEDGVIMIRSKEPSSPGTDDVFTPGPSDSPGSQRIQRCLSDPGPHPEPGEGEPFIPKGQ

Compound | Inhibitory ratio (%) (1µM) | Inhibitory ratio (%) (3µM)
NC(N)=Nc1nnc(-c2ccccc2)c2cccc(I)c12 [Compound 4, 8-iodo-4-phenylphthalazin-1-ylguanidine hydrochloride] | 66% | 78%
NC(N)=Nc1nnc(-c2ccccc2)c2cccc(Br)c12 [Compound 13, 8-bromo-4-phenylphthalazin-1-ylguanidine] | 60% | 99%
Cc1ccccc1-c1nnc(N=C(N)N)c2c(I)cccc12 [Compound 28, 8-iodo-4-(2-methylphenyl)phthalazin-1-ylguanidine] | 66% | 96%
Cc1ccccc1-c1nnc(N=C(N)N)c2c(Br)cccc12 [Compound 24, 8-bromo-4-(2-methylphenyl)phthalazin-1-ylguanidine] | 62% | 78%
NC(N)=Nc1nnc(-c2ccc(F)cc2)c2cccc(I)c12 [Compound 36, 4-(4-fluorophenyl)-8-iodophthalazin-1-ylguanidine] | 58% | 78%
8-methyl-4-(2-methylphenyl)phthalazin-1-ylguanidine [Compound 44] | 55% | 73%
